Results as given in US20200345268A1, “ISOTOPIC BIOMARKERS OF ORGANIC ACIDEMIAS” (The United States of America, as represented by the …, priority 2017, published 2020).

What was measured:
[1] = system: Mut^−/−; Tg^INS-MCK-Mut mice; conditions: mouse, in vivo; for Mut^+/− Oxidation Rate / Mut^−/− Oxidation Rate: ip
Experimental: To further assess transgene function, the in vivo oxidative capacity of Mut^−/−; Tg^INS-MCK-Mut mice was measured through detecting metabolism of numerous 1-^13C labeled fatty acids to ^13CO2 via the Kreb's Cycle.
The in vivo effects of hepatic Mut deficiency were also assessed by measuring the oxidation of 1-^13C-methionine (FIG. 1I) and 1-^13C-glycine (FIG. 1J). These labels reflect hepatic mitochondrial function and the activity of the glycine cleavage system, both known to be impaired in MMA patients.
In Vivo Stable Isotope Oxidation Studies: Stable isotope studies were performed in 4 Mut−/−; Tg^INS-MCK-Mut and 4 control littermates. Closed circuit, constant volume respiratory chambers were used to collect and measure enrichment of ^13CO2 in mice, as described previously (Chandler and Venditti, 2009 and 2010, Manoli et al 2013). Mice received IP injections with tracer amounts (10 μl/g of [10 mg/ml] tracer solution) of 99.9% ^13C-isotopomers. Aliquots of air were removed every 5-10 min, while CO2 was continuously monitored. ^13CO2 enrichment was measured by isotope ratio mass spectroscopy (Metabolic Solutions, Nashua, N.H.). […] Cumulative percentage of total isotopomer dose metabolized was subsequently calculated, using the formula: Percentage of dose metabolized=total ^13C excreted [mmol/dose (mmol)×100%].
The following 1-C labeled stable isotopes were used: ^13C Sodium Propionate, ^13C-Methionine, ^13C-Glycine, ^13C-Pyruvate, ^13C-Octanoate, ^13C-α-Ketoisocaproic Acid, ^13C-Leucine, ^13C-Acetate, ^13C-Phenylalanine. Stable isotopomers were purchased from Cambridge Isotope Laboratories. Variables were compared for each substrate and time point using a two-sided unpaired t-test and considered statistically significant at p<0.05.
These studies were conducted using N=5 mice with MMA (Mut^−/−; Tg^INS-MCK-Mut mutants) and N=5 sex matched littermates (controls). Each mouse was injected with the labels depicted in Table 3 and the oxidation rates and kinetics of ^13C/^12C CO2 enrichment were analyzed.

[2] = Test drink solution stability; format: physicochemical; conditions: 1 mg/ml in tap water
[3] = system: methylmalonic acidemia patients and healthy volunteers; conditions: human, in vivo
From the text: Percent Dose Oxidized at each time point=CO2 production rate×Σ(APE (t)/(mmol C^13 administered)×100, where CO2 production rate was the one measured by the indirect calorimetry on the same day just prior to the isotope study.
The test cohort was comprised of 41 patients with MMA (26 mut0, aged 3-37 years, 6 mut-, aged 9-30 years, and 9 cblA, aged 4-41 years), 8 healthy volunteers, and 8 heterozygote parents of affected individuals. Within the affected group, 12 individuals had previously received a liver (LT), kidney (KT), combined liver-kidney (LKT), or partial (graft) liver-kidney (pLKT) transplant (2 LT, 3 KT, 6 LKT, 1 pLKT).
A metabolic cart (ParvoMedics TrueOne2400 Sandy, Utah) was used to measure subject O2 consumption (VO2), CO2 production (VCO2), and resting energy expenditure (REE) at supine posture for 25-35 minutes. Seven of the healthy volunteers were tested three times over a two-month period to evaluate inter- and intra-individual variability.
A dose of 0.5 mg/kg (or 0.5 ml/kg) body weight (BW) was administered to the study subjects orally or through a G-tube as a bolus over no more than 2 minutes, followed by similar amount of water consumption. […] Measurements of the isotopic ratio (^13C/^12C) in expired gas were determined by isotope ratio mass spectrometry (Metabolic Solutions, Nashua, N.H.).

| Compound | Cumulative % of total dose metabolized, Controls, mean (SD) [1] | Cumulative % of total dose metabolized, Mutants, mean (SD) [1] | Mut^+/− Oxidation Rate [1] | Mut^−/− Oxidation Rate [1] | further results |
| --- | --- | --- | --- | --- | --- |
| C[13C](=O)[O-].[Na+] [1-^13C-acetate, Sodium 1-^13C-Acetate] | 38.02 (11.79) % | 42.23 (14.32) % | 69.5 +/− 17.7 (n = 5) μmol/g/hour | 88.2 +/− 26.5 (n = 5) μmol/g/hour |  |
| NC[13C](=O)O [1-^13C-glycine] |  |  | 0.14 +/− 0.003 (n = 3) μmol/g/hour | 0.07 +/− 0.007 (n = 4) μmol/g/hour | oxidation of label (release of label) [1]: impaired ability to release label |
| CSCC[C@H](N)[13C](=O)O [1-^13C-methionine] |  |  | 11.5 +/− 3.4 (n = 4) μmol/g/hour | 6.5 +/− 2.5 (n = 4) μmol/g/hour | oxidation of label (release of label) [1]: impaired ability to release label |
| CCC(=O)O [1-^13C-propionate, sodium 1-^13C-propionate] |  |  |  |  | maximal time for maintaining solution stability [2]: two; time within which the majority of the label is oxidized [3]: 15 to 30 min |
| CC(C)[13C@H](N)C(=O)O [2-^13C-Valine] | 4.41 (2.63) % | 5.15 (2.19) % |  |  |  |
| CC(C)C[C@H](N)[13C](=O)O [L-1-^13C-Leucine] | 13.54 (1.50) % | 12.44 (3.10) % |  |  |  |

Second part, led by results:

| Cumulative % of total dose metabolized, Controls, mean (SD) [1] | Cumulative % of total dose metabolized, Mutants, mean (SD) [1] | Mut^+/− Oxidation Rate [1] | Mut^−/− Oxidation Rate [1] | Compound | further results |
| --- | --- | --- | --- | --- | --- |
| 10.75 (7.38) % | 5.71 (2.74) % |  |  | N[C@@H](C[13c]1ccccc1)C(=O)O [L-1-^13C-Phenylalanine] |  |
| 3.68 (2.34) % | 3.32 (0.85) % |  |  | CC(C)C[13C@H](N)C(=O)O [L-2-^13C-Leucine] |  |
| 52.16 (17.06) % | 52.99 (9.85) % |  |  | C[13C](=O)C(=O)O [Sodium 1-^13C-Pyruvate] |  |
| 33.95 (3.66) % | 24.00 (12.95) % |  |  | CC(C)CC(=O)[13C](=O)[O-].[Na+] [Sodium 1-^13C-α-Ketoisocaproic Acid] |  |
